In US20090124598A1, “PHARMACEUTICAL USE OF SUBSTITUTED AMIDES” (priority 2005, published 2009):

These molecules were tested against T1, h-11βHSD1 (Homo sapiens, UniProt P28845) (assay: 11βHSD1 enzyme assay (SPA)). Conditions: extract of yeast transformed with h-11βHSD1; 120 nM 3H-cortisone, 60 min at 30° C., pH=7.4; read-out: Inhibition of 11βHSD1, h-11βHSD1 IC50 values.
T1 construct: made in house
Format: biochemical
Method: 3H-cortisone and anti-rabbit Ig coated scintillation proximity assay (SPA) beads were purchased from Amersham Pharmacia Biotech, P-NADPH was from Sigma and rabbit anticortisol antibodies were from Fitzgerald. An extract of yeast transformed with h-11βHSD1 (Hult et al., FEBS Lett., 441, 25 (1998)) was used as the source of enzyme. The test compounds were dissolved in DMSO (10 mM). All dilutions were performed in a buffer containing 50 mM TRIS-HCl (Sigma Chemical Co), 4 mM EDTA (Sigma Chemical Co), 0.1% BSA (Sigma Chemical Co), 0.01% Tween-20 (Sigma Chemical Co) and 0.005% bacitracin (Novo Nordisk A/S), pH=7.4. Optiplate 96 wells plates were supplied by Packard. The amount of 3H-cortisol bound to the SPA beads was measured on TopCount NXT, Packard.
h-11βHSD1, 120 nM 3H-cortisone, 4 mM β3-NADPH, antibody (1:200), serial dilutions of test compound and SPA particles (2 mg/well) were added to the wells. The reaction was initiated by mixing the different components and was allowed to proceed under shaking for 60 min at 30° C. The reaction was stopped be the addition of 10 fold excess of a stopping buffer containing 500 μM carbenoxolone and 1 μM cortisone. Data was analysed using GraphPad Prism software.

T1 sequence (P28845 whole entry): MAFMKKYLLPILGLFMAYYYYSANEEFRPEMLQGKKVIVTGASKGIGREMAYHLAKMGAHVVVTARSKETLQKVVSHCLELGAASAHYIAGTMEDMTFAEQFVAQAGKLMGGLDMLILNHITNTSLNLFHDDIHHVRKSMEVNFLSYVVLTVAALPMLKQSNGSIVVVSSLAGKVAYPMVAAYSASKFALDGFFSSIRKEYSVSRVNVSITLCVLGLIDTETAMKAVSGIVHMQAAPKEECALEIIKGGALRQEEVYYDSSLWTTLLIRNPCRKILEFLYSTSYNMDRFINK

IC50 | Structure (SMILES)
19 nM | CN(Cc1ccc(C(=O)N2CC3(C)CC2CC(C)(C)C3)cc1)C(=O)c1ccc(S(C)(=O)=O)cc1 (stereo not drawn) [Example 1-28, 4-Methanesulfonyl-N-methyl-N-[4-(1,3,3-trimethyl-6-aza-bicyclo[3.2.1]octane-6-carbonyl)-benzyl]-benzamide]
10 nM | CC(C)N(Cc1ccc(C(=O)N2CC3(C)CC2CC(C)(C)C3)cc1)S(=O)(=O)C(F)(F)F (stereo not drawn) [Example 2-5, Trifluoro-N-isopropyl-N-[4-(1,3,3-trimethyl-6-aza-bicyclo[3.2.1]octane-6-carbonyl)-benzyl]-methanesulfonamide]
500 nM | COC(=O)CN(C)C(=O)N(C)Cc1ccc(C(=O)N2CC3(C)CC2CC(C)(C)C3)cc1 (stereo not drawn) [Example 3-8, {1,3-Dimethyl-3-[4-(1,3,3-trimethyl-6-aza-bicyclo[3.2.1]octane-6-carbonyl)-benzyl]-ureido}-acetic Acid Methyl Ester]
